The values below come from patent US12070467B2, “Method of treating ciliated tissue using CSA micelles” (Brigham Young University, priority 2018, dated 2024).

Values joined by “and” are separate entries in the source; they are usually repeats but may differ in a detail not shown here. Equal entries are not always repeated. Where two headings read alike, the source gives them in different places.

The MIC is the lowest concentration that inhibits growth of the organism. Lower therefore signals inhibition by little substance.

One series deals with P. aeruginosa ATCC 47085. In words: Minimum inhibitory concentration (MIC), broth microdilution. The conditions noted are these: 37° C., 18-20 h. Type of series: cell-based, Pseudomonas aeruginosa. As to the method: Staphylococcus aureus (ATCC 25923) and Pseudomonas aeruginosa (ATCC 47085 (PA01)) were grown from fresh colonies in trypticase soy broth (TSB) and incubated overnight at 37° C. Fungal cultures, Candida albicans (ATCC 90028) and Candida auris (CDC 0382, 0384, 0387, and 0389), were grown overnight in sabouraud dextrose broth (SDB) or Roswell Park Memorial Institute medium (RPMI). Cultures of bacteria and fungi were centrifuged, and pellets were washed three times with phosphate buffered saline (PBS) and further resuspended in fresh PBS. Bacterial cultures were diluted in TSB and fungal cultures were diluted in SDB or RPMI to […] or 10^6 CFU/mL (optical density (OD) readings at 600 nm).
Minimum inhibitory concentrations (MICs) were measured using the broth microdilution protocol described by the Clinical and Laboratory Standards Institute. […] Aliquots (100 μL) of a prepared inoculum (10^6 CFU/mL for bacteria and […] CFU/mL for fungi) were added, and plates were incubated at 37° C. for 18-20 h. Bacterial or fungal growth was visually observed to determine the MICs. Negative and positive controls were included for each set of MIC measurements. For studies with pluronic, the surfactant was added at 4% and 5% to the initial inocula in each experiment. Measurements were performed in triplicate for all susceptibility tests.
(Dilution methods test growth across graded concentrations, often in twofold steps.)

Series [1] concerns cilia on porcine trachea explants. Conditions: for Number of explants (out of 12) clearing beads, <10 min / Number of explants (out of 12) clearing beads, <20 min / Number of explants (out of 12) clearing beads, <30 min / Number of explants (out of 12), No Clearance: CSA-131 100 μg/mL for 1 h; for Number of explants (out of 12) clearing beads, <20 min: between 10 and 20 min; for Number of explants (out of 12) clearing beads, <30 min: between 20 and 30 min; for Number of explants (out of 12), No Clearance: no clearance (>30 min).
Experimental: In this example, the effect of CSA compositions with and without micelles was tested using ciliated porcine lung tissue. […] An ex vivo assay was used to evaluate pluronic-containing formulations, and in this assay the beating of cilia can be actively observed. […] This method involves sectioning porcine trachea, supported in a nutrient medium, placing small beads on one side of the explant, and measuring the transfer (clearance) of the beads to the other side of the explants (FIG. 5). […] Twelve explants were used for each test condition, and the results are reported as the number clearing beads in a given amount of time.
Normal healthy porcine trachea and lung tissue was excised very fresh from slaughter. After aseptic collection, whole tissues were transported in a 1:1 mixture of Dulbecco's modified Eagle's medium (DMEM) and RPMI, which was pre-warmed and supplemented with penicillin-streptomycin-glutamine 100× (Hyclone, Logan, UT, USA). Explants were washed by tissue immersion three to four times in warm, fresh DMEM/RPMI media. Explants were maintained by continuous immersion in DMEM/RPMI media in a 5% CO2-95% air mixture in a humidified incubator at 37° C.
Tracheas were washed and extra exterior tissues to the cartilage were removed. Tracheas were opened and cut into approximately 2×1 cm explants consisting of the respiratory mucosa and underlying cartilage. […] Explants were then placed on small circular filter papers, which were placed on top of 1% agarose gel plugs bathed in medium in 6-well plates. […] Five microliters of a suspension of 1 μm diameter polystyrene microsphere beads (Polysciences, Inc., Warrington, PA, USA) were pipetted on one edge of epithelial surfaces and evaluated for their complete clearance (movement) across the surface with categorization of clearance in under 10 min, between 10 and 20 min, between 20 and 30 min, and no clearance (>30 min). Independent replicates were completed for each time point. Outcomes were then counted and a percentage of clearance was determined.

As for `CCCCCCCCCCCCNCCC[C@@H](C)[C@H]1CC[C@H]2[C@@H]3[C@H](OCCCN)C[C@@H]4C[C@H](OCCCN)CC[C@]4(C)[C@H]3C[C@H](OCCCN)[C@]12C.Cl.Cl.Cl.Cl` [CSA-131], the MIC against P. aeruginosa ATCC 47085 is 2 µg/mL. Also, the “Number of explants (out of 12) clearing beads, <10 min” value in series [1] (0% pluronic) is given as 3/12; in series [1] (1% pluronic) it was 4/12; in series [1] (2% pluronic) it was 7/12; in series [1] (3% pluronic) it was 7/12; in series [1] (4% pluronic), 8/12; in series [1] (5% pluronic), 10/12. Besides, the “Number of explants (out of 12) clearing beads, <20 min” value is listed as 2/12 in series [1] (0% pluronic); 2/12 in series [1] (1% pluronic); 3/12 in series [1] (2% pluronic); 4/12 in series [1] (3% pluronic); 4/12 in series [1] (4% pluronic); 2/12 in series [1] (5% pluronic). In addition, the “Number of explants (out of 12) clearing beads, <30 min” value in series [1] (0% pluronic) is given as 1/12; in series [1] (1% pluronic) it was 1/12; in series [1] (2% pluronic), 2/12; in series [1] (3% pluronic), 1/12. For the same compound, the “Number of explants (out of 12), No Clearance” value was “six of 12 and 6/12” in series [1] (0% pluronic); 5/12 in series [1] (1% pluronic). For the same compound, the “Influence on bead clearance” value in series [1] (CSA-131 100 μg/mL with pluronic (4%)) was “did not influence bead clearance”. Also, the “Bead clearance / ciliary activity compared with the control” value in series [1] (CSA-131 100 μg/mL, 5% pluronic) is “the same as the control”.
